Assay results from the supplement of paper PMC13380429.

How the values were obtained:
Settings in all cases: 72 h
U2OS [1] = assay: relative viability EC50 (midpoint between 100% and the lowest measured viability); higher = less toxic
Vero E6 [2] = assay: as above
HepG2 [3] = assay: as above
Caco-2 [4] = assay: as above
U2OS [5] = assay: drug sensitivity score (DSS) for viability; higher = more toxic; extreme values may be limits of the assay
Vero E6 [6] = assay: as above
Calu-3 [7] = assay: as above
HepG2 [8] = assay: as above
Caco-2 [9] = assay: as above
U2OS [10] = assay: cell viability relative to DMSO; higher = less toxic
Vero E6 [11] = assay: as above
Calu-3 [12] = assay: as above
HepG2 [13] = assay: as above
Caco-2 [14] = assay: as above
Calu-3 [15] = assay: relative viability EC50 (midpoint between 100% and the lowest measured viability); higher = less toxic

SMILES	relative viability EC50 (U2OS [1])	relative viability EC50 (Vero E6 [2])	relative viability EC50 (HepG2 [3])	relative viability EC50 (Caco-2 [4])	drug sensitivity score (U2OS [5])	drug sensitivity score (Vero E6 [6])	drug sensitivity score (Calu-3 [7])	drug sensitivity score (HepG2 [8])	drug sensitivity score (Caco-2 [9])	cell viability (U2OS [10]; 1 nM)	cell viability (U2OS [10]; 10 nM)	cell viability (U2OS [10]; 100 nM)	cell viability (U2OS [10]; 1000 nM)	cell viability (U2OS [10]; 10000 nM)	cell viability (Vero E6 [11]; 1 nM)	cell viability (Vero E6 [11]; 10 nM)	cell viability (Vero E6 [11]; 100 nM)	cell viability (Vero E6 [11]; 1000 nM)	cell viability (Vero E6 [11]; 10000 nM)	cell viability (Calu-3 [12]; 1 nM)	cell viability (Calu-3 [12]; 10 nM)	cell viability (Calu-3 [12]; 100 nM)	cell viability (Calu-3 [12]; 1000 nM)	cell viability (Calu-3 [12]; 10000 nM)	cell viability (HepG2 [13]; 1 nM)	cell viability (HepG2 [13]; 10 nM)	cell viability (HepG2 [13]; 100 nM)	cell viability (HepG2 [13]; 1000 nM)	cell viability (HepG2 [13]; 10000 nM)	cell viability (Caco-2 [14]; 1 nM)	cell viability (Caco-2 [14]; 10 nM)	cell viability (Caco-2 [14]; 100 nM)	cell viability (Caco-2 [14]; 1000 nM)	cell viability (Caco-2 [14]; 10000 nM)	relative viability EC50 (Calu-3 [15])
O=c1[nH]c2ccc(Cl)cc2c(N[C@@H]2CN3CCC2CC3)c1-c1nc2ccccc2[nH]1 [CHIR-124]	0.307 µM	1.59 µM	0.777 µM	0.869 µM	18	8.6	2.4	12.7	7	94.1%	96.9%	95.3%	4.5%	0.8%	105%	103%	105%	77.6%	6.6%	92.3%	91.8%	105%	97.3%	59.9%	103%	99.3%	101%	36.7%	3.1%	103%	96.9%	111%	66.9%	44%	
O=C1COc2nccc(-c3ccccc3F)c2CN1Cc1cc(C(F)(F)F)cc(C(F)(F)F)c1 [GPBAR-A]	> 10 µM	> 10 µM	> 10 µM	> 10 µM	0	0	4.3	0	0.1	97.7%	103%	100%	104%	91.2%	101%	99%	98.9%	101%	102%	81.2%	104%	67.2%	98.7%	68.1%	108%	91.3%	103%	94.4%	100%	102%	102%	106%	102%	86.9%	
CNc1ncnc2c1ncn2[C@@H]1O[C@H](CO)[C@@H](O)[C@H]1O [N6-methyladenosine]		> 10 µM	> 10 µM	> 10 µM		0	0.7	0.3	0						99.8%	103%	102%	98.7%	102%	110%	89.5%	102%	92%	86%	105%	108%	101%	104%	81.2%	109%	112%	98.5%	110%	106%	> 10 µM
CCNC(=O)[C@H]1O[C@@H](n2cnc3c(N)ncnc32)[C@H](O)[C@@H]1O [NECA]		> 10 µM	> 10 µM	> 10 µM		0	0.6	0	0						100%	105%	96.1%	101%	94.4%	106%	102%	94.9%	88.5%	92.8%	94.8%	102%	107%	105%	105%	102%	97.6%	110%	111%	110%	> 10 µM
Cn1cc(-c2ccc3ncc(Cc4ccc5ncccc5c4)n3n2)cn1 [NVP-BVU972]		> 10 µM	0.404 µM	> 10 µM		0	0.5	13.6	1.2						103%	100%	103%	108%	87.8%	95.9%	100%	98.6%	101%	80.8%	105%	107%	87.2%	35.8%	15.6%	96.2%	99.2%	93.8%	97.8%	76.4%	> 10 µM
O=c1onc2cnc3ccccc3n12 [ODQ]		> 10 µM	> 10 µM	> 10 µM		0		0	0						97.9%	96.4%	97.6%	108%	105%						105%	110%	100%	110%	94.3%	91.3%	96%	95.2%	89.9%	112%	
O=C(O)[C@H](Cc1c[nH]c2ccccc12)N1C(=O)c2ccccc2C1=O [RG108]	> 10 µM	> 10 µM	> 10 µM	> 10 µM	0	0		0	0	105%	105%	97.1%	105%	96.2%	97.4%	99.1%	97.6%	92%	101%						118%	109%	114%	99.8%	109%	96.8%	100%	91.9%	106%	102%	
O=C(O)CCN(O)C(=O)CCCCCCCCC1CC1 [TC-E-5002]		> 10 µM	> 10 µM	> 10 µM		0		0	0						97.2%	99.2%	97.7%	93.2%	94.9%						96.1%	103%	101%	99.3%	104%	89%	97.7%	91.3%	92.1%	91.9%	
